{
  "source": "ChEMBL document CHEMBL1649461",
  "about": "“Fitness cost of VanA-type vancomycin resistance in methicillin-resistant Staphylococcus aureus” (2009)",
  "format_in_all_cases": "functional",
  "key": {"Staphylococcus aureus [1]": {"tested_on": "Staphylococcus aureus", "assay": "Antimicrobial activity against VanA-type vancomycin-resistant and methicillin-resistant Staphylococcus aureus 1 by broth dilution method"}, "Staphylococcus aureus [2]": {"tested_on": "Staphylococcus aureus", "assay": "Antimicrobial activity against methicillin-resistant Staphylococcus aureus HIP11713 by broth dilution method"}, "Staphylococcus aureus [3]": {"tested_on": "Staphylococcus aureus", "assay": "Antimicrobial activity against VanA-type vancomycin-resistant and methicillin-resistant Staphylococcus aureus 6 by broth dilution method"}, "Staphylococcus aureus [4]": {"tested_on": "Staphylococcus aureus", "assay": "Antimicrobial activity against VanA-type vancomycin-resistant and methicillin-resistant Staphylococcus aureus 5 by broth dilution method"}},
  "data": [
    {"smiles": "CC(=O)N[C@@H]1[C@H](Oc2c3cc4cc2Oc2ccc(cc2Cl)[C@@H](O[C@@H]2O[C@@H](CO)[C@@H](O)[C@H](O)[C@@H]2NC(C)=O)[C@@H]2NC(=O)[C@H](NC(=O)[C@@H]4NC(=O)[C@H]4NC(=O)[C@@H](Cc5ccc(c(Cl)c5)O3)NC(=O)[C@H](N)c3ccc(O)c(c3)Oc3cc(O)cc4c3)c3ccc(O)c(c3)-c3c(O[C@H]4O[C@H](CO)[C@@H](O)[C@@H](O)[C@@H]4O)cc(O)cc3[C@@H](C(=O)O)NC2=O)O[C@@H](CO)[C@@H](O)[C@@H]1O", "values": [
      {"measurement": "MIC", "setting": "Staphylococcus aureus [1]", "result": 256, "unit": "mg/L"},
      {"measurement": "MIC", "setting": "Staphylococcus aureus [2]", "result": 1, "unit": "mg/L"},
      {"measurement": "MIC", "setting": "Staphylococcus aureus [3]", "result": 128, "unit": "mg/L"},
      {"measurement": "MIC", "setting": "Staphylococcus aureus [4]", "result": 64, "unit": "mg/L"}
    ]},
    {"smiles": "CN[C@H](CC(C)C)C(=O)N[C@H]1C(=O)N[C@@H](CC(N)=O)C(=O)N[C@H]2C(=O)N[C@H]3C(=O)N[C@H](C(=O)N[C@H](C(=O)O)c4cc(O)cc(O)c4-c4cc3ccc4O)[C@H](O)c3ccc(c(Cl)c3)Oc3cc2cc(c3O[C@@H]2O[C@H](CO)[C@@H](O)[C@H](O)[C@H]2O[C@H]2C[C@](C)(N)[C@H](O)[C@H](C)O2)Oc2ccc(cc2Cl)[C@H]1O", "note": "[VANCOMYCIN]", "values": [
      {"measurement": "MIC", "setting": "Staphylococcus aureus [1]", "result": 2050, "unit": "mg/L"},
      {"measurement": "MIC", "setting": "Staphylococcus aureus [3]", "result": 1020, "unit": "mg/L"},
      {"measurement": "MIC", "setting": "Staphylococcus aureus [4]", "result": 1020, "unit": "mg/L"}
    ]}
  ]
}
